Data reported in PubChem BioAssay (NCI).
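Values below derive from 48-hour exposures of cells grown in 96-well plates, with endpoints linearly interpolated between the two concentrations bracketing the appropriate inhibition level. At the TGI there is no net growth.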

What was measured:
Experiment in all cases: DTP human tumour cell line panel, 48 h
786-0 renal = test system: 786-0 renal
A498 renal = test system: A498 renal
A549 NSCLC = test system: A549 NSCLC
ACHN renal = test system: ACHN renal
CAKI-1 renal = test system: CAKI-1 renal
CCRF-CEM leukemia = test system: CCRF-CEM leukemia
COLO 205 colon = test system: COLO 205 colon
DLD-1 colon = test system: DLD-1 colon
DMS 114 small cell lung = test system: DMS 114 small cell lung
EKVX NSCLC = test system: EKVX NSCLC
HCC-2998 colon = test system: HCC-2998 colon
HCT-116 colon = test system: HCT-116 colon
HCT-15 colon = test system: HCT-15 colon
HL-60(TB) leukemia = test system: HL-60(TB) leukemia
HOP-62 NSCLC = test system: HOP-62 NSCLC
HOP-92 NSCLC = test system: HOP-92 NSCLC
HT29 colon = test system: HT29 colon
IGROV1 ovarian = test system: IGROV1 ovarian
K-562 leukemia = test system: K-562 leukemia
KM12 colon = test system: KM12 colon
KM20L2 colon = test system: KM20L2 colon
LXFL 529 NSCLC = test system: LXFL 529 NSCLC
M14 melanoma = test system: M14 melanoma
M19-MEL melanoma = test system: M19-MEL melanoma
MALME-3M melanoma = test system: MALME-3M melanoma
MOLT-4 leukemia = test system: MOLT-4 leukemia
NCI-H226 lung = test system: NCI-H226 lung
NCI-H23 lung = test system: NCI-H23 lung
NCI-H460 lung = test system: NCI-H460 lung
OVCAR-3 ovarian = test system: OVCAR-3 ovarian
OVCAR-5 ovarian = test system: OVCAR-5 ovarian
OVCAR-8 ovarian = test system: OVCAR-8 ovarian
RPMI-8226 leukemia = test system: RPMI-8226 leukemia
RXF 393 renal = test system: RXF 393 renal
SF-268 CNS = test system: SF-268 CNS
SF-295 CNS = test system: SF-295 CNS
SF-539 CNS = test system: SF-539 CNS
SK-MEL-2 melanoma = test system: SK-MEL-2 melanoma
SK-MEL-28 melanoma = test system: SK-MEL-28 melanoma
SK-MEL-5 melanoma = test system: SK-MEL-5 melanoma
SK-OV-3 ovarian = test system: SK-OV-3 ovarian
SN12C renal = test system: SN12C renal
SNB-19 CNS = test system: SNB-19 CNS
SNB-75 CNS = test system: SNB-75 CNS
SNB-78 CNS = test system: SNB-78 CNS
TK-10 renal = test system: TK-10 renal
U251 CNS = test system: U251 CNS
UACC-257 melanoma = test system: UACC-257 melanoma
UACC-62 melanoma = test system: UACC-62 melanoma
UO-31 renal = test system: UO-31 renal
DMS 273 small cell lung = test system: DMS 273 small cell lung
HOP-18 NSCLC = test system: HOP-18 NSCLC
LOX IMVI melanoma = test system: LOX IMVI melanoma
NCI-H522 lung = test system: NCI-H522 lung
OVCAR-4 ovarian = test system: OVCAR-4 ovarian
SR leukemia = test system: SR leukemia
SW-620 colon = test system: SW-620 colon

For `Cc1nc(-n2nc(-c3ccccc3)cc2-c2ccccc2)sc1C(/C=C/c1ccc([N+](=O)[O-])cc1)=N/NC(N)=S`, the TGI (786-0 renal) was 43.6 µM, the TGI (A498 renal) was > 100 µM and the TGI (A549 NSCLC) was > 100 µM. The TGI (ACHN renal) was > 100 µM, the TGI (CAKI-1 renal) was > 100 µM and the TGI (CCRF-CEM leukemia) was 90.2 µM. The TGI (COLO 205 colon) was > 100 µM, the TGI (DLD-1 colon) was > 100 µM and the TGI (DMS 114 small cell lung) was 73.5 µM. The TGI (EKVX NSCLC) was > 100 µM, the TGI (HCC-2998 colon) was 74 µM and the TGI (HCT-116 colon) was 43.4 µM. For the same compound, the TGI (HCT-15 colon) was > 100 µM, the TGI (HL-60(TB) leukemia) was 25.6 µM and the TGI (HOP-62 NSCLC) was 65.7 µM. The TGI (HOP-92 NSCLC) was > 100 µM, the TGI (HT29 colon) was > 100 µM and the TGI (IGROV1 ovarian) was > 100 µM. For the same compound, the TGI (K-562 leukemia) was 62.7 µM, the TGI (KM12 colon) was > 100 µM and the TGI (KM20L2 colon) was > 100 µM. For the same compound, the TGI (LXFL 529 NSCLC) was > 100 µM, the TGI (M14 melanoma) was > 100 µM and the TGI (M19-MEL melanoma) was > 100 µM. For the same compound, the TGI (MALME-3M melanoma) was > 100 µM, the TGI (MOLT-4 leukemia) was 81.4 µM and the TGI (NCI-H226 lung) was > 100 µM. For the same compound, the TGI (NCI-H23 lung) was > 100 µM, the TGI (NCI-H460 lung) was > 100 µM and the TGI (OVCAR-3 ovarian) was > 100 µM. For the same compound, the TGI (OVCAR-5 ovarian) was > 100 µM, the TGI (OVCAR-8 ovarian) was > 100 µM and the TGI (RPMI-8226 leukemia) was 45 µM. For the same compound, the TGI (RXF 393 renal) was > 100 µM, the TGI (SF-268 CNS) was > 100 µM and the TGI (SF-295 CNS) was > 100 µM. For the same compound, the TGI (SF-539 CNS) was > 100 µM, the TGI (SK-MEL-2 melanoma) was > 100 µM and the TGI (SK-MEL-28 melanoma) was > 100 µM. For the same compound, the TGI (SK-MEL-5 melanoma) was > 100 µM, the TGI (SK-OV-3 ovarian) was > 100 µM and the TGI (SN12C renal) was > 100 µM. The TGI (SNB-19 CNS) was > 100 µM, the TGI (SNB-75 CNS) was > 100 µM and the TGI (SNB-78 CNS) was 56.7 µM. The TGI (TK-10 renal) was > 100 µM, the TGI (U251 CNS) was > 100 µM and the TGI (UACC-257 melanoma) was > 100 µM. For the same compound, the TGI (UACC-62 melanoma) was > 100 µM and the TGI (UO-31 renal) was > 100 µM.

In the case of `CCOC(=O)C1=C(O)c2ccc(OC)cc2C(=O)C1=O`, the TGI (786-0 renal) is reported as > 100 µM, the TGI (A498 renal) is reported as > 100 µM and the TGI (A549 NSCLC) is reported as > 100 µM. For the same compound, the TGI (ACHN renal) was > 100 µM, the TGI (CAKI-1 renal) was > 100 µM and the TGI (CCRF-CEM leukemia) was > 100 µM. For the same compound, the TGI (COLO 205 colon) was > 100 µM, the TGI (DLD-1 colon) was > 100 µM and the TGI (DMS 114 small cell lung) was > 100 µM. The TGI (DMS 273 small cell lung) was > 100 µM, the TGI (EKVX NSCLC) was > 100 µM and the TGI (HCC-2998 colon) was > 100 µM. For the same compound, the TGI (HCT-116 colon) was > 100 µM, the TGI (HCT-15 colon) was > 100 µM and the TGI (HL-60(TB) leukemia) was > 100 µM. For the same compound, the TGI (HOP-18 NSCLC) was 66.5 µM, the TGI (HOP-62 NSCLC) was > 100 µM and the TGI (HOP-92 NSCLC) was > 100 µM. For the same compound, the TGI (HT29 colon) was > 100 µM, the TGI (IGROV1 ovarian) was > 100 µM and the TGI (K-562 leukemia) was > 100 µM. For the same compound, the TGI (KM12 colon) was > 100 µM, the TGI (KM20L2 colon) was > 100 µM and the TGI (LOX IMVI melanoma) was > 100 µM. For the same compound, the TGI (M14 melanoma) was > 100 µM, the TGI (M19-MEL melanoma) was 44.4 µM and the TGI (MALME-3M melanoma) was > 100 µM. The TGI (MOLT-4 leukemia) was > 100 µM, the TGI (NCI-H226 lung) was > 100 µM and the TGI (NCI-H23 lung) was > 100 µM. For the same compound, the TGI (NCI-H460 lung) was > 100 µM, the TGI (NCI-H522 lung) was > 100 µM and the TGI (OVCAR-3 ovarian) was > 100 µM. For the same compound, the TGI (OVCAR-4 ovarian) was > 100 µM, the TGI (OVCAR-5 ovarian) was > 100 µM and the TGI (OVCAR-8 ovarian) was > 100 µM. The TGI (RPMI-8226 leukemia) was > 100 µM, the TGI (RXF 393 renal) was > 100 µM and the TGI (SF-268 CNS) was > 100 µM. The TGI (SF-295 CNS) was > 100 µM, the TGI (SF-539 CNS) was > 100 µM and the TGI (SK-MEL-2 melanoma) was > 100 µM. The TGI (SK-MEL-28 melanoma) was > 100 µM, the TGI (SK-MEL-5 melanoma) was > 100 µM and the TGI (SK-OV-3 ovarian) was > 100 µM. The TGI (SN12C renal) was > 100 µM, the TGI (SNB-19 CNS) was > 100 µM and the TGI (SNB-75 CNS) was > 100 µM. The TGI (SNB-78 CNS) was > 100 µM, the TGI (SR leukemia) was > 100 µM and the TGI (SW-620 colon) was > 100 µM. The TGI (TK-10 renal) was > 100 µM, the TGI (U251 CNS) was > 100 µM and the TGI (UACC-257 melanoma) was > 100 µM. The TGI (UACC-62 melanoma) was > 100 µM and the TGI (UO-31 renal) was > 100 µM.
